Experimental data as given in US11406622B2, “Glaucocalyxin a derivative, pharmaceutically acceptable salt thereof, or pharmaceutical composition thereof and uses thereof in preparation of drugs for treating psoriasis” (SUZHOU PHARMAVAN CO., LTD., priority 2017, dated 2022).
Where “and” joins values, the source holds several entries; their conditions need not be identical. Identical values can stand only once.

Key:
[1] = tested on: xylene-induced auricular swelling in mice; experiment: Xylene-induced auricular swelling in mice (Example 7); format: in vivo, mouse; conditions: 7 consecutive days, xylene on 8th day
Description: In this example, the glaucocalyxin A derivatives and pharmaceutically acceptable salts thereof were detected for the inhibitory effect thereof on xylene-induced auricular swelling in mice. Compound 23 was used as an exemplary compound, and the detection method was as follows.
20 mice were randomly divided into 4 groups with 5 mice in each group, which were blank control group, 30 mg/kg dexamethasone treatment group, Compound 23 (10 mg/kg) treatment group, and Compound 23 (50 mg/kg) treatment group, respectively. 0.25-0.3 mL depending on the body weight was intragastrically administrated for 7 consecutive days, and an equal volume of 5% glucose injection was administrated to the blank group. On the 8th day, xylene was used to produce a model of auricular swelling in the right auricle of mice. 15 μl of xylene, an inflammatory inducer, was applied to both sides of the right auricle of each mouse, and the left auricle was left un-treated as a normal auricle control. After 1 hour, the mice were sacrificed by cervical dislocation. Both auricles were cut off along the auricle baseline, and then punched at the same position by using a puncher with a diameter of 8 mm to give auricle pieces, which were then weighed on an electronic analytical balance. The auricular swelling rate and the auricular swelling inhibitory rate were calculated according to the following formula. […]

mouse spleen lymphocytes = experiment: ConA-induced proliferation of mouse spleen lymphocytes, MTT (Example 8); format: cell-based; conditions: 48 h, 5 μg/mL ConA
Description: In this example, the glaucocalyxin A derivatives and pharmaceutically acceptable salts thereof were detected for the effect thereof on ConA-induced proliferation of mouse spleen lymphocytes.
2×10^7/mL cell suspension was prepared and a 5 μg/μL ConA stock solution was added thereto at a final concentration of 5 μg/mL. The resulting mixture was inoculated into a 96-well culture plate at 0.1 mL per well. Then 0.1 mL of test compound at different concentrations was added to each well. Triplicate or quadruplicate wells were set up for each group, and a vehicle control group (without compound), a stimulant control group (with ConA, without compound, and without vehicle), a cell control group (without ConA, without compound, and without vehicle), and a blank medium control group (without cells, a well for null adjustment) were also set up, and cultured at 37° C., 5% CO2 for 48 h. MTT solution at 5 mg/mL was added at 20 μl per well, and cultured for an additional 4 hours. The culture plate was taken out and centrifuged at 1000 rpm for 10 min. The supernatant of each well was aspirated, and 100 μL of SDS cell lysis solution was added to each well, and cultured overnight. On the next day, the absorbance at 550 nm (OD550nm) was measured on an enzyme-linked immunoassay analyzer. The results were expressed as the mean OD550nm value of the triplicates or quadruplicates±standard deviation (x±sd). SPSS software version 17.0 was used for statistical analysis of the mean values, that is, the vehicle group was compared with the stimulant group, and the test group of each compound concentration was compared with the corresponding vehicle control group. The cell survival rate of each group was calculated according to the mean value for the compound treatment group and the mean value for the vehicle control group, that is, the cell survival rate (%)=the mean value for the compound treatment group/the mean value for the vehicle control group×100%. A linear regression equation was obtained by plotting the cell survival rate of each group against the concentration of the test compound, statistical test of the correlation coefficient was conducted, and then the IC50 value was determined.

BALB/c mice = experiment: Acute toxicity in BALB/c mice, single tail-vein injection (Example 9); format: in vivo, mouse; conditions: single intravenous injection
Source text: In this example, Compound 23 and Compound 24 were detected for their acute toxicities, and the detection method was as follows.
Experimental procedure: 40 BALB/c mice, half male and half female, were randomly divided into groups after weight measurement. The weight of an individual should be within the range of the average body weight±20%. Animals should be allowed to acclimatize to the environment for at least 5 days before the test, and healthy (if female, it must be un-pregnant) mice were selected as test animals. The main inspections during the acclimatization period included: whether it met the quality indicators required at the time of ordering; general state check; and whether the weight reached the weight range required by the test. Unqualified abnormal animals were not included in this test. A single tail-vein injection was administrated to the mice at a low, medium, or high dose, which was 5 mg/kg, 10 mg/kg, or 40 mg/kg respectively according to a blank preparation pre-test. An equal volume of vehicle was intravenously injected to establish a control group.
Mice were observed once respectively at 0 to 2 hours and 4 to 6 hours after each administration. If toxic symptoms occurred, the number of observations could be increased. (2) Gross anatomy observation: All the surviving mice in each group were dissected and observed on the 8th day of the experiment. The abnormal organs and tissues found in the observation of administration sites and in the gross anatomy observation that might be related to the test samples were photographed and recorded. (3) Disposal of dying animals: The state of the mouse and the observation time were recorded, and the body weight was measured. (4) Disposal of dead animals: The time of death or the time when the death was found was recorded, the body weight was measured, and then the dissection was quickly performed for gross observation to speculate the cause of death.

Br.C=C1C(=O)C23C(O)CC4C(C)(C)c5nc(N(C)C)sc5CC4(C)C2CCC1C3O (stereo not shown) [Compound 23]
inhibition of auricular swelling ([1]; 10 mg/kg intragastric): effective
inhibition of auricular swelling ([1]; 50 mg/kg intragastric): effective
OD550nm value (x ± sd) (mouse spleen lymphocytes; 0.78125 μg/mL): 1.14
Survival rate (%) (mouse spleen lymphocytes; 0.78125 μg/mL): 98%
OD550nm value (x ± sd) (mouse spleen lymphocytes; 1.5625 μg/mL): 1.18
Survival rate (%) (mouse spleen lymphocytes; 1.5625 μg/mL): 101%
OD550nm value (x ± sd) (mouse spleen lymphocytes; 3.125 μg/mL): 0.52
Survival rate (%) (mouse spleen lymphocytes; 3.125 μg/mL): 45%
OD550nm value (x ± sd) (mouse spleen lymphocytes; 6.25 μg/mL): 0.29
Survival rate (%) (mouse spleen lymphocytes; 6.25 μg/mL): 25%
OD550nm value (x ± sd) (mouse spleen lymphocytes; 12.5 μg/mL): 0.07
Survival rate (%) (mouse spleen lymphocytes; 12.5 μg/mL): 6%
OD550nm value (x ± sd) (mouse spleen lymphocytes; 25 μg/mL): 0.02
Survival rate (%) (mouse spleen lymphocytes; 25 μg/mL): 2%
OD550nm value (x ± sd) (mouse spleen lymphocytes; 50 μg/mL): 0.02
Survival rate (%) (mouse spleen lymphocytes; 50 μg/mL): 2%
OD550nm value (x ± sd) (mouse spleen lymphocytes; 100 μg/mL): 0.02
Survival rate (%) (mouse spleen lymphocytes; 100 μg/mL): 1%
IC50 (mouse spleen lymphocytes; linear regression): ~9.41 µM and 9.41 µM
IC50 (μg/mL) (mouse spleen lymphocytes; linear regression): IC50 = 4.00 μg/mL
effect on ConA-induced proliferation of mouse spleen lymphocytes (in words) (mouse spleen lymphocytes; range of concentrations tested): significant effect
comparative safety (BALB/c mice): safer than Compound 24
toxic side effects (BALB/c mice; 5 mg/kg): No obvious toxic side effects
weight loss and decreased diet (BALB/c mice; 5 mg/kg): no significant weight loss and decreased diet
toxic side effects (BALB/c mice; 10 mg/kg): No obvious toxic side effects
weight loss and decreased diet (BALB/c mice; 10 mg/kg): no significant weight loss and decreased diet
toxic side effects (BALB/c mice; 40 mg/kg): No obvious toxic side effects
weight loss and decreased diet (BALB/c mice; 40 mg/kg): no significant weight loss and decreased diet
